Data as given in the NIST ThermoML archive (doi:10.1016/j.jct.2007.06.002).
“And” between values parts separate entries of the source, which are not always exact repeats. Equal values may be shown once.

Key:
[1] = refractive index (Na D-line) (dimensionless); xn = mol fraction of the nth substance listed; settings: 298.15 K, 101 kPa, Liquid
[2] = xn = mol fraction of the nth substance listed; settings: 101 kPa, Liquid
[3] = 101 kPa, Liquid
[4] = refractive index (Na D-line) (dimensionless); settings: 298.15 K; 101.33 kPa; Liquid

CCCCn1cc[n+](C)c1.F[P-](F)(F)(F)(F)F [1-butyl-3-methylimidazolium hexafluorophosphate] + COCCOCCOC
Settings | refractive index
[1], x1 = 1 | 1.4058

[2], x1 = 1
Settings | mass density [kg/m3]
298.15 K | 1367.88
308.15 K | 1359.33
318.15 K | 1350.87

COCCO [2-methoxyethan-1-ol]
[3]
Settings | mass density [kg/m3]
298.15 K | 960.05
308.15 K | 950.81
318.15 K | 941.45

Settings | refractive index
[4] | 1.4004

CCCCn1cc[n+](C)c1.F[P-](F)(F)(F)(F)F [1-butyl-3-methylimidazolium hexafluorophosphate] + COCCO
[1]
Settings | refractive index
x1 = 0.0037 | 1.4006
x1 = 0.0078 | 1.401
x1 = 0.012 | 1.4013
x1 = 0.0354 | 1.403
x1 = 0.0801 | 1.405
x1 = 0.1468 | 1.4065
x1 = 0.2542 | 1.4078
x1 = 0.396 | 1.4083
x1 = 0.6104 | 1.4086
x1 = 0.8127 | 1.4086
x1 = 0.8961 | 1.4089
x1 = 0.9345 | 1.409
x1 = 0.9749 | 1.409
x1 = 1 | 1.4089

mass density [kg/m3], [2]
Settings | 298.15 K | 308.15 K | 318.15 K
x1 = 0.0037 | 964.55 | 962.53 | 945.96
x1 = 0.0078 | 969.43 | 967.34 | 950.88
x1 = 0.012 | 974.36 | 972.19 | 955.82
x1 = 0.0354 | 1000.13 | 997.66 | 981.7
x1 = 0.0801 | 1042.78 | 1039.97 | 1024.48
x1 = 0.1468 | 1094.24 | 1091.12 | 1076.09
x1 = 0.2542 | 1157.35 | 1153.41 | 1139.53
x1 = 0.396 | 1219.08 | 1213.6 | 1201.72
x1 = 0.6104 | 1284.64 | 1277.88 | 1267.48
x1 = 0.8127 | 1328.13 | 1320.65 | 1311.1
x1 = 0.8961 | 1344.77 | 1336.68 | 1327.9
x1 = 0.9345 | 1352.85 | 1344.49 | 1336
x1 = 0.9749 | 1361.9 | 1353.35 | 1344.99
x1 = 1 | 1367.88 | 1359.33 | 1350.87

COCCO [2-methoxyethan-1-ol] + CCCCn1cc[n+](C)c1.F[P-](F)(F)(F)(F)F
Settings | refractive index
[1], x2 = 0 | 1.4004

[2], x2 = 0
Settings | mass density [kg/m3]
298.15 K | 960.05
308.15 K | 950.81
318.15 K | 941.45

COCCOC [1,2-dimethoxyethane]
[3]
Settings | mass density [kg/m3]
298.15 K | 864.47
308.15 K | 853.47
318.15 K | 842.27

Settings | refractive index
[4] | 1.379

COCCOCCOC [2,5,8-trioxanonane]
[3]
Settings | mass density [kg/m3]
298.15 K | 939.1
308.15 K | 929.6
318.15 K | 919.3

Settings | refractive index
[4] | 1.4058

CCCCn1cc[n+](C)c1.F[P-](F)(F)(F)(F)F [1-butyl-3-methylimidazolium hexafluorophosphate] + COCCOC
Settings | refractive index
[1], x1 = 1 | 1.4089

[2], x1 = 1
Settings | mass density [kg/m3]
298.15 K | 1367.88
308.15 K | 1359.33
318.15 K | 1350.87

COCCOC [1,2-dimethoxyethane] + CCCCn1cc[n+](C)c1.F[P-](F)(F)(F)(F)F
[1]
Settings | refractive index
x2 = 0 | 1.379
x2 = 0.0041 | 1.3781
x2 = 0.0125 | 1.3798
x2 = 0.0416 | 1.3859
x2 = 0.1055 | 1.3926
x2 = 0.1219 | 1.3941
x2 = 0.2474 | 1.4009
x2 = 0.3744 | 1.4043
x2 = 0.4937 | 1.4062
x2 = 0.7092 | 1.4076
x2 = 0.9329 | 1.4087

mass density [kg/m3], [2]
Settings | x2 = 0 | x2 = 0.0125 | x2 = 0.0416 | x2 = 0.1055 | x2 = 0.1219 | x2 = 0.2474 | x2 = 0.3744 | x2 = 0.4937 | x2 = 0.7092 | x2 = 0.9329
298.15 K | 864.47 | 879.28 | 912.09 | 976.53 | 991.51 | 1089.14 | 1164.22 | 1219.89 | 1296.36 | 1353.78
308.15 K | 853.47 | 868.36 | 901.37 | 966.23 | 981.31 | 1079.57 | 1155.09 | 1211.03 | 1287.72 | 1345.27
318.15 K | 842.27 | 857.25 | 890.47 | 955.79 | 971 | 1069.97 | 1145.98 | 1202.22 | 1279.25 | 1336.85

CCCCn1cc[n+](C)c1.F[P-](F)(F)(F)(F)F [1-butyl-3-methylimidazolium hexafluorophosphate]
[3]
Settings | mass density [kg/m3]
298.15 K | 1367.88
308.15 K | 1359.33
318.15 K | 1350.87

Settings | refractive index
[4] | 1.4089 and 1.4058

COCCOCCOC [2,5,8-trioxanonane] + CCCCn1cc[n+](C)c1.F[P-](F)(F)(F)(F)F
[1]
Settings | refractive index
x2 = 0 | 1.4058
x2 = 0.0039 | 1.4063
x2 = 0.0076 | 1.4065
x2 = 0.0127 | 1.407
x2 = 0.0304 | 1.4081
x2 = 0.0505 | 1.4092
x2 = 0.1003 | 1.4113
x2 = 0.1617 | 1.4141
x2 = 0.207 | 1.4149
x2 = 0.3024 | 1.4148
x2 = 0.4018 | 1.4142
x2 = 0.5023 | 1.4138
x2 = 0.5623 | 1.4123
x2 = 0.7197 | 1.4098
x2 = 0.9477 | 1.4094
x2 = 0.9842 | 1.4089

mass density [kg/m3], [2]
Settings | 298.15 K | 308.15 K | 318.15 K
x2 = 0 | 939.1 | 929.6 | 919.3
x2 = 0.0039 | 942.16 | 932.57 | 922.34
x2 = 0.0076 | 945.03 | 935.37 | 925.2
x2 = 0.0127 | 948.97 | 939.22 | 929.13
x2 = 0.0304 | 962.27 | 952.3 | 942.43
x2 = 0.0505 | 976.74 | 966.73 | 957.03
x2 = 0.1003 | 1010.23 | 1000.46 | 990.93
x2 = 0.1617 | 1047.81 | 1038.53 | 1028.98
x2 = 0.207 | 1073.6 | 1064.59 | 1055.02
x2 = 0.3024 | 1124.55 | 1115.44 | 1106.04
x2 = 0.4018 | 1173.96 | 1164.58 | 1155.65
x2 = 0.5023 | 1219.47 | 1210.5 | 1202.05
x2 = 0.5623 | 1243.6 | 1235.27 | 1226.97
x2 = 0.7197 | 1292.24 | 1286.05 | 1277.69
x2 = 0.9477 | 1345.16 | 1336.93 | 1328.47
x2 = 0.9842 | 1359.24 | 1351.31 | 1342.85
x2 = 0.9952 | 1365.36 | 1356.87 | 1348.47
